Reference: ChEMBL document CHEMBL1131885, “Acyclic structural variants of growth hormone secretagogue L-692,429” (1999)
The source made the active and inactive calls. No cut-off for these calls is given here.

Species: Rattus norvegicus
Assay: In vitro growth hormone release in rat pituitary cells assay was determined
Assay type: functional
Conditions: Pituitary gland cell, read-out: ED50 (the source's name)

Row | Structure (SMILES) | EC50 [nM]
1 | CN(Cc1ccc(-c2ccccc2-c2nn[nH]n2)cc1)C(=O)[C@@H](CCc1ccccc1)NC(=O)CC(C)(C)N | > 300
2 | CN(Cc1ccc(-c2ccccc2-c2nn[nH]n2)cc1)C(=O)[C@@H](CCc1ccccc1)NC(=O)C(C)(C)N | 30
3 | CC(C)(N)CC(=O)N[C@@H]1CCc2ccccc2N(Cc2ccc(-c3ccccc3-c3nn[nH]n3)cc2)C1=O | 60
4 | CC(C)(N)CC(=O)N[C@H](Cc1ccccc1)C(=O)NCc1ccc(-c2ccccc2-c2nn[nH]n2)cc1 | 11000
5 | CC(C)(N)CC(=O)N[C@H](COCc1ccccc1)C(=O)NCc1ccc(-c2ccccc2-c2nn[nH]n2)cc1 | > 1000
6 | CN(Cc1ccc(-c2ccccc2-c2nn[nH]n2)cc1)C(=O)[C@@H](CCc1ccccc1)NC(=O)CCC(C)(C)N | > 300
7 | CC(C)(N)CC(=O)N[C@H](Cc1c[nH]c2ccccc12)C(=O)NCc1ccc(-c2ccccc2-c2nn[nH]n2)cc1 | 400
8 | CN(C(=O)[C@@H](CCc1ccccc1)NC(=O)C(C)(C)N)c1ccc(-c2ccccc2-c2nn[nH]n2)cc1 | 300
9 | CC(C)(N)CC(=O)N[C@H](CCc1ccccc1)C(=O)NCc1ccc(-c2ccccc2-c2nn[nH]n2)cc1 | 200
10 | CCN(Cc1ccc(-c2ccccc2-c2nn[nH]n2)cc1)C(=O)[C@@H](CCc1ccccc1)NC(=O)C(C)(C)N | > 500
11 | CC[C@@H](NC(=O)CC(C)(C)N)C(=O)N(Cc1ccc(-c2ccccc2-c2nn[nH]n2)cc1)c1ccccc1 | 11000
12 | CC(C)N(Cc1ccc(-c2ccccc2-c2nn[nH]n2)cc1)C(=O)[C@@H](CCc1ccccc1)NC(=O)C(C)(C)N | > 500

Species: Rattus norvegicus
Assay: In vitro growth hormone release in rat pituitary cells assay was determined; IA means inactive
Assay type: functional, cell-based
Conditions: Pituitary gland cell

Row | Structure (SMILES) | ED50
13 | CC(C)(N)CC(=O)NCC(=O)NCc1ccc(-c2ccccc2-c2nn[nH]n2)cc1 | inactive
14 | C[C@@H](NC(=O)CC(C)(C)N)C(=O)NCc1ccc(-c2ccccc2-c2nn[nH]n2)cc1 | inactive
